Broadly, the IC50 is the concentration that inhibits the measured activity by half. As usually defined, the CC50 is the concentration that lowers cell viability or growth by half. In general, EC50 refers to the concentration needed to bring the measured effect to its halfway point. A higher EC50 goes with lower potency in that assay.

≈ marks a conversion by molar mass, not a printed value. Read-outs that look alike come from different tables or passages of the source.

One data set addresses CCR5 (Homo sapiens (Human), UniProt P51681). Put plainly: Calcium flux inhibition experiment. In kind it is cell-based. Particulars: for IC50: HEK293/CCR5-Gα16 cell line, calcium flux, read-out: CCR5 IC50; for calcium influx inhibition effect in words, versus positive control compounds: conclusion from Table 1. From the text: Experiment apparatus: FlexStation II
Experiment materials: HEK293/CCR5-Gα16 cell line, Fluo-4calcium dye (fluorescent-4 calcium ion dye) and FlexStation instrument.
Experiment theory: Activation of the receptor can cause the activation of Gα16 protein, thereby activating phospholipase C (PLC) to generate IP3 and DAG by establishing CCR5 and Ga16 co-transfected cell line. IP3 can bind to IP3 receptors on the endoplasmic reticulum and mitochondria in a cell, which can cause the release of intracellular calcium. Thus, determination of changes in intracellular calcium can be used as a method to detect CCR5 activation state. Fluo-4/AM is a fluorescent probe indicator for calcium used to measure calcium ion. As a non-polar lipid-soluble compound, after it enters into cells, AM group is dissociated to release Fluo-4 under the effect of cell lipolysis enzyme. Fluo-4 is a polar molecule and not easy to go through the lipid bilayer membrane, therefore it can stay within the cells for a long time. Ultimately, the level of activated Ga protein can be reflected by measuring the excited fluorescence intensity. If the screened compound can activate CCR5, it can greatly increase the calcium flux reaction; on the contrary, if the screened compound can antagonize CCR5, it can greatly reduce calcium flux reaction.
1. HEK293 cells which can stably express CCR5 were inoculated in a 96-well plate and incubated overnight.
2. The medium in each well into which cells were innoculated was removed and 40 μl/well of freshly prepared dye was added. The plate was placed in a 37° C. incubator and incubated for 40 minutes at constant temperature.
3. The medicament to be determined was diluted with calcium buffer to eight concentration gradients, which is 1×10^−4 M, 1×10^−5 M, 1×10^−6 M, 1×10^−7 M, 1×10^−8 M, 1×10^−9 M, 1×10^−10 M, and 1×10^−11 M, respectively, and homogeneously mixed.
4. The dye was removed. Freshly prepared calcium buffer was used to wash for one time, 50 μl of calcium buffer was added.
5. FlexStation II was used for detection. 25 μl of calcium buffer containing the medicament to be determined was added automatically from the 15th second.

Data set [1] in a line: Cytotoxicity (CC50) in TZM-bl cells. The class given is cell-based. To be noted: human.
The test system of another data set is HIV-1SF162 virus strain. Kind of data set: Inhibition activity on TZM-bl cells infected with HIV-1SF162. Particulars: for EC50: Human immunodeficiency virus 1, TZM-bl; for therapeutic index (TI): TZM-bl cells infected with HIV-1SF162.
The mark [2] stands for this setting: TZM-bl cells (Table 3), read-out: CC50.

Sequence of CCR5 (P51681 whole entry): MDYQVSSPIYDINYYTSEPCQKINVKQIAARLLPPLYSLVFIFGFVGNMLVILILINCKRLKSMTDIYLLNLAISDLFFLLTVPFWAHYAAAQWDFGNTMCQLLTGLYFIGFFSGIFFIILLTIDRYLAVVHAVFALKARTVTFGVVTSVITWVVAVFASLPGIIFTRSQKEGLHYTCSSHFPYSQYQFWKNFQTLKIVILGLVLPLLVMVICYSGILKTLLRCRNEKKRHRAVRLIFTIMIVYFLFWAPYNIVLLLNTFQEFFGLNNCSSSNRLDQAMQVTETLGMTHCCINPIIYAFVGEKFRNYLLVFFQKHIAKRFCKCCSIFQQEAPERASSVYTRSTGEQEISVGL

As to `Cc1ccc([C@H](CCN2C3CCC2CC(n2c(C)nnc2C(C)C)C3)NC(=O)C2CCCCC2)s1` (stereo partly drawn) [Compound 30, N-[(1S)-3-[exo-3-(3-isopropyl-5-methyl-4H-1,2,4-triazol-4-yl)-8-azabicyclo[3.2.1]octane-8-yl]-1-(5-methylthiophen-2-yl)propyl]cyclohexane-1-carboxamide], the concentration for half-maximal inhibition (IC50) at CCR5 was determined as 24 nM. This molecule also came in with a cytotoxic concentration (CC50) in data set [1] of over 200 µg/mL. Besides, in the data set on HIV-1SF162 virus strain, the EC50 was determined as 0.06 µg/mL (≈ 0.121 µM) and the “therapeutic index (TI)” value is on record as over 2150.54.

Consider `Cc1nnc(C(C)C)n1C1CC2CCC(C1)N2CC[C@H](NC(=O)C1CCC(F)(F)CC1)c1csc2ccccc12` (stereo partly drawn) [Compound 27, 4,4-difluoro-N-[(1S)-3-[exo-3-(3-isopropyl-5-methyl-4H-1,2,4-triazol-4-yl)-8-azabicyclo[3.2.1]octane-8-yl]-1-(benzothiophen-3-yl)propyl]cyclohexane-1-carboxamide], for which the CC50 at 3 days in data set [1] worked out at 96.1 µg/mL (≈ 169 µM). For the same molecule, in the data set with HIV-1SF162 virus strain, the EC50 came out at 0.511 µg/mL (≈ 0.897 µM) and the “therapeutic index (TI)” value turned out to be 188.14.

On to `CCCC(=O)N1CCc2c(nc(C)n2C2CC3CCC(C2)N3CC[C@H](NC(C)=O)c2ccc(Cl)s2)C1` (stereo partly drawn) [Compound 128, N-{(1S)-3-[(3-endo)-3-(5-n-butyryl-2-methyl-4,5,6,7-tetrahydro-1H-imidazo[4,5-c]pyridin-1-yl)-8-azabicyclo[3.2.1]octane-8-yl]-1-(5-chlorothiophen-2-yl)-propyl}acetamide], for which, at CCR5, the IC50 was found to be 17.5 nM. This molecule also showed a cytotoxic concentration (CC50) in data set [1] of over 200 µg/mL. Also, in the data set with HIV-1SF162 virus strain, it took 0.174 µg/mL (≈ 0.327 µM) to reach a half-maximal effect (EC50) and the “therapeutic index (TI)” value is on record as over 1150.82.

For `CCC(=O)N1CCc2c(nc(C)n2C2CC3CCC(C2)N3CC[C@H](NC(C)=O)c2ccc(Cl)s2)C1` (stereo partly drawn) [Compound 127, N-{(1S)-3-[(3-endo)-3-(5-propionyl-2-methyl-4,5,6,7-tetrahydro-1H-imidazo[4,5-c]pyridin-1-yl)-8-azabicyclo[3.2.1]octane-8-yl]-1-(5-chlorothiophen-2-yl)-propyl}acetamide], the IC50 on CCR5 came out at 22.9 nM. In addition, the CC50 in data set [1] (setting [2]) was over 200 µg/mL. Moreover, in the data set on HIV-1SF162 virus strain, it took 0.145 µg/mL (≈ 0.28 µM) to reach a half-maximal effect (EC50) and the “therapeutic index (TI)” value is recorded as over 1379.94.

With `Cc1nnc(C(C)C)n1C1CC2CCC(C1)N2CC[C@H](NC(=O)C1CCCC1)c1ccc(F)s1` (stereo partly drawn) [Compound 39, N-[(1S)-3-[exo-3-(3-isopropyl-5-methyl-4H-1,2,4-triazol-4-yl)-8-azabicyclo[3.2.1]octane-8-yl]-1-(5-fluorothiophen-2-yl)propyl]cyclopentane-1-carboxamide], on CCR5, the IC50 was found to be 1.41 nM and the “calcium influx inhibition effect in words, versus positive control compounds” value is “better than the positive control compounds”. Also, in data set [1] (setting [2]), the 50% cytotoxic concentration (CC50) is over 200 µg/mL. Besides, in the data set on HIV-1SF162 virus strain, it took 1.02 µg/mL (≈ 2.09 µM) to reach a half-maximal effect (EC50) and the “therapeutic index (TI)” value is given as over 196.08.

As to `CCCC(=O)N1CCc2c(nc(C)n2C2CC3CCC(C2)N3CC[C@H](NC(C)=O)c2ccc(F)s2)C1` (stereo partly drawn) [Compound 136, N-{(1S)-3-[(3-endo)-3-(5-n-butyryl-2-methyl-4,5,6,7-tetrahydro-1H-imidazo[4,5-c]pyridin-1-yl)-8-azabicyclo[3.2.1]octane-8-yl]-1-(5-fluorothiophen-2-yl)-propyl}acetamide], the half-maximal inhibitory concentration (IC50) on CCR5 is 22.1 nM. The CC50 in data set [1] (setting [2]) was over 200 µg/mL. In the data set with HIV-1SF162 virus strain, it took 0.011 µg/mL (≈ 0.0213 µM) to reach a half-maximal effect (EC50) and the “therapeutic index (TI)” value is over 4834.51.

For the molecule `Cc1nnc(C(C)C)n1C1CC2CCC(C1)N2CC[C@H](NC(=O)C1CCCC1)c1ccc(F)nc1` (some centres unmarked) [Compound 36], on CCR5, the IC50 worked out at 31.8 nM. In addition, in data set [1] (setting [2]), the CC50 is over 200 µg/mL. The half-maximal effective concentration (EC50) in the data set on HIV-1SF162 virus strain was over 40 µg/mL.

In turn, `Cc1nnc(C(C)C)n1C1CC2CCC(C1)N2CC[C@H](NC(=O)C1CCC(F)(F)CC1)c1ccc(F)s1` (stereo partly drawn) [Compound 37, 4,4-difluoro-N-[(1S)-3-[exo-3-(3-isopropyl-5-methyl-4H-1,2,4-triazol-4-yl)-8-azabicyclo[3.2.1]octane-8-yl]-1-(5-fluorothiophen-2-yl)propyl]cyclohexane-1-carboxamide] showed a cytotoxic concentration (CC50) at 3 days in data set [1] of over 200 µg/mL. Also, in the data set with HIV-1SF162 virus strain, a half-maximal response (EC50) required 0.647 µg/mL (≈ 1.2 µM) and the “therapeutic index (TI)” value is recorded as over 309.12.

For the molecule `CC(=O)N[C@@H](CCN1C2CCC1CC(n1c(C)nc3c1CCN(C(=O)C(C)C)C3)C2)c1ccc(Cl)s1` (stereo partly drawn) [Compound 129, N-{(1S)-3-[(3-endo)-3-(5-isobutyryl-2-methyl-4,5,6,7-tetrahydro-1H-imidazo[4,5-c]pyridin-1-yl)-8-azabicyclo[3.2.1]octane-8-yl]-1-(5-chlorothiophen-2-yl)-propyl}acetamide], at CCR5, the IC50 was found to be 14.2 nM. Moreover, the 50% cytotoxic concentration (CC50) in data set [1] is over 200 µg/mL. In addition, in the data set on HIV-1SF162 virus strain, the half-maximal effective concentration (EC50) amounted to 0.072 µg/mL (≈ 0.135 µM) and the “therapeutic index (TI)” value is given as over 1526.72.

As for `CC(=O)N[C@@H](CCN1C2CCC1CC(n1c(C)nc3c1CCN(C(C)=O)C3)C2)c1ccc(Cl)s1` (stereo partly drawn) [Compound 125, N-{(1S)-3-[(3-endo)-3-(5-acetyl-2-methyl-4,5,6,7-tetrahydro-1H-imidazo[4,5-c]pyridin-1-yl)-8-azabicyclo[3.2.1]octane-8-yl]-1-(5-chlorothiophen-2-yl)-propyl}acetamide], on CCR5, the half-inhibitory concentration (IC50) turned out to be 12.2 nM. The 50% cytotoxic concentration (CC50) in data set [1] was over 200 µg/mL. Besides, in the data set on HIV-1SF162 virus strain, the EC50 amounted to 0.286 µg/mL (≈ 0.567 µM) and the “therapeutic index (TI)” value was over 699.27.

As to `Cc1ccc([C@H](CCN2C3CCC2CC(n2c(C)nnc2C(C)C)C3)NC(=O)C2CCCC2)s1` (stereo partly drawn) [Compound 31, N-[(1S)-3-[exo-3-(3-isopropyl-5-methyl-4H-1,2,4-triazol-4-yl)-8-azabicyclo[3.2.1]octane-8-yl]-1-(5-methylthiophen-2-yl)propyl]cyclopentane-1-carboxamide], on CCR5, the half-maximal inhibitory concentration (IC50) was found to be 9.76 nM and the “calcium influx inhibition effect in words, versus positive control compounds” value was “comparable to the positive control compounds”. In data set [1], the CC50 was over 200 µg/mL. For the same molecule, in the data set on HIV-1SF162 virus strain, the EC50 worked out at 0.033 µg/mL (≈ 0.0682 µM) and the “therapeutic index (TI)” value is on record as over 5714.29.

As for `Cc1nnc(C(C)C)n1C1CC2CCC(C1)N2CC[C@H](NC(=O)C1CCCCC1)c1ccc(F)nc1` (some centres unmarked) [Compound 35], the IC50 at CCR5 worked out at 270 nM. For the same molecule, in data set [1], the half-maximal cytotoxic concentration (CC50) is over 200 µg/mL. The same molecule came in with an EC50 in the data set on HIV-1SF162 virus strain of over 40 µg/mL.

`CC(=O)N[C@@H](CCN1C2CCC1CC(n1c(C)nc3c1CCN(C(=O)C(C)C)C3)C2)c1nccs1` (stereo partly drawn) [Compound 121, N-{(1S)-3-[(3-endo)-3-(5-isobutyryl-2-methyl-4,5,6,7-tetrahydro-1H-imidazo[4,5-c]pyridin-1-yl)-8-azabicyclo[3.2.1]octane-8-yl]-1-(thiazol-2-yl)-propyl}acetamide]: the IC50 on CCR5 came to 32.3 nM. This molecule came in with a CC50 in data set [1] of over 200 µg/mL. Further, in the data set with HIV-1SF162 virus strain, a half-maximal effect (EC50) was put at 0.328 µg/mL (≈ 0.658 µM) and the “therapeutic index (TI)” value is recorded as over 386.37.

Consider `CCC(=O)N1CCc2c(nc(C)n2C2CC3CCC(C2)N3CC[C@H](NC(C)=O)c2ccc(F)s2)C1` (stereo partly drawn) [Compound 134, N-{(1S)-3-[(3-endo)-3-(5-propionyl-2-methyl-4,5,6,7-tetrahydro-1H-imidazo[4,5-c]pyridin-1-yl)-8-azabicyclo[3.2.1]octane-8-yl]-1-(5-fluorothiophen-2-yl)-propyl}acetamide], for which the 50% inhibitory concentration (IC50) on CCR5 worked out at 22.1 nM. The same molecule returned a cytotoxic concentration (CC50) in data set [1] of over 200 µg/mL. In addition, in the data set on HIV-1SF162 virus strain, it took 0.113 µg/mL (≈ 0.225 µM) to reach a half-maximal effect (EC50) and the “therapeutic index (TI)” value is recorded as over 1772.41.

As to `CC(=O)N[C@@H](CCN1C2CCC1CC(n1c(C)nnc1C(C)C)C2)c1csc2ccccc12` (stereo partly drawn) [Compound 28, N-[(1S)-3-[exo-3-(3-isopropyl-5-methyl-4H-1,2,4-triazol-4-yl)-8-azabicyclo[3.2.1]octane-8-yl]-1-(benzothiophen-3-yl)propyl]acetamide], the CC50 at 3 days in data set [1] (setting [2]) was over 200 µg/mL. Further, the EC50 with HIV-1SF162 virus strain was over 40 µg/mL.

As to `CCCC(=O)N1CCc2c(nc(C)n2C2CC3CCC(C2)N3CC[C@H](NC(C)=O)c2nccs2)C1` (stereo partly drawn) [Compound 123, N-{(1S)-3-[(3-endo)-3-(5-n-butyryl-2-methyl-4,5,6,7-tetrahydro-1H-imidazo[4,5-c]pyridin-1-yl)-8-azabicyclo[3.2.1]octane-8-yl]-1-(thiazol-2-yl)-propyl}acetamide], on CCR5, the IC50 was 12.1 nM and the “calcium influx inhibition effect in words, versus positive control compounds” value is given as “better than the positive control compounds”.

`Cc1nnc(C(C)C)n1C1CC2CCC(C1)N2CC[C@H](NC(=O)C1CCCC1)c1nccs1` (stereo partly drawn) [Compound 117, N-[(1S)-3-[exo-3-(3-isopropyl-5-methyl-4H-1,2,4-triazol-4-yl)-8-azabicyclo[3.2.1]octane-8-yl]-1-(thiazol-2-yl)propyl]cyclopentane-1-carboxamide]: the half-maximal inhibitory concentration (IC50) on CCR5 is 16.1 nM.

For the origin of these results see patent US10167299B2, “1-(3-aminopropyl) substituted cyclic amine compounds, preparation method therefor, and pharmaceutical compositions and uses thereof” (SHANGHAI INSTITUTE OF MATERIA MEDICA, CHINESE ACADEMY OF …, priority 2013, dated 2019).
